Data taken from patent US7655643B2, “Antibacterial macrocycles with substituted biphenyl” (AiCuris GmbH & Co. KG, priority 2003, dated 2010).
In brackets after ≈: the same amount, converted by molar mass.

Key:
S. aureus 133 [1] = assay: MIC, liquid dilution test (96-well microtitre plate); assay type: cell-based; details: Staphylococcus aureus, 133, minimal medium + 0.4% BH broth, 18-24 h
Method: (§1) The minimum inhibitory concentration (MIC) is the minimum concentration of an antibiotic with which the growth of a test microbe is inhibited over 18-24 h. The inhibitor concentration can in these cases be determined by standard microbiological methods (see, for example, The National Committee for Clinical Laboratory Standards. Methods for dilution antimicrobial susceptibility tests for bacteria that grow aerobically; approved standard-fifth edition. NCCLS document M7-A5 [ISBN 1-56238-394-9]. NCCLS, 940 West Valley Road, Suite 1400, Wayne, Pa. 19087-1898 USA, 2000). The MIC of the compounds of the invention is determined in the liquid dilution test on the 96-well microtitre plate scale. The bacterial microbes are cultivated in a minimal medium (18.5 mM Na2HPO4, 5.7 mM KH2PO4, 9.3 mM NH4Cl, 2.8 mM MgSO4, 17.1 mM NaCl, 0.033 μg/ml thiamine hydrochloride, 1.2 μg/ml nicotinic acid, 0.003 μg/ml biotin, 1% glucose, 25 μg/ml of each proteinogenic amino acid with the exception of phenylalanine; [H.-P. Kroll; unpublished]) with addition of 0.4% BH broth (test medium). In the case of Enterococcus faecium L4001, heat-inactivated fetal calf serum (FCS; GibcoBRL, Germany) is added to the test medium in a final concentration of 10%. Overnight cultures of the test microbes are diluted to an OD578 of 0.001(to 0.01 in the case of enterococci) in fresh test medium, and incubated 1:1 with dilutions of the test substances (1:2 dilution steps) in test medium (200 μl final volume). The cultures are incubated at 37° C. for 18-24 hours; enterococci in the presence of 5% CO2.
(§2) The lowest substance concentration in each case at which bacterial growth was no longer visible is defined as the MIC. […] The compounds show a graded antibacterial effect against most of the test microbes.

S. aureus T17 [2] = assay: as above; assay type: cell-based; details: Staphylococcus aureus, T17, read-out: MIC S. aureus T17
Method: as §1, §2
The S. aureus strain T17 is isolated in vivo. CFW1 mice are infected intraperitoneally with 4×10^7 S. aureus 133 cells per mouse. 0.5 h after the infection, the animals are treated intravenously with 50 mg/kg biphenomycin B. The kidneys are removed from the surviving animals on day 3 after the infection. After homogenization of the organs, the homogenates are plated out as described for RN4220Bi^R on antibiotic-free and antibiotic-containing agar plates and incubated at 37° C. overnight. […] About 20 of these colonies are tested for the biphenomycin B MIC, and a colony with an MIC of >50 μM is selected for further cultivation, and the strain is referred to as T17.

E. faecium L4001 [3] = assay: as above; assay type: cell-based, Enterococcus faecium; details: Enterococcus faecium
Method: as §1, §2

[4] = biological target: S. aureus 133 Translation; assay: S. aureus in vitro transcription-translation assay (firefly luciferase, S30 extract); assay type: biochemical
Text: In order to construct a reporter plasmid which can be used in an in vitro transcription -translation assay from S. aureus the plasmid pBESTluc (Promega Corporation, USA) is used. The E. coli tac promoter present in this plasmid in front of the firefly luciferase is replaced by the capA1 promoter with appropriate Shine-Dalgarno sequence from S. aureus. The primers CAPFor 5′-[…] -[…]-3′ and CAPRev 5′-[…]-3′ are used for this. The primer CAPFor contains the capA1 promoter, the ribosome binding site and the 5′ region of the luciferase gene. After PCR using pBESTluc as template it is possible to isolate a PCR product which contains the firefly luciferase gene with the fused capA1 promoter. This is, after restriction with ClaI and HindIII, ligated into the vector pBESTluc which has likewise been digested with ClaI and HindIII. The resulting plasmid pla can be replicated in E. coli and be used as template in the S. aureus in vitro transcription-translation assay.
Six liters of BHI medium are inoculated with a 250 ml overnight culture of a S. aureus strain and allowed to grow at 37° C. until the OD600 nm is 2-4. The cells are harvested by centrifugation and washed in 500 ml of cold buffer A (10 mM Tris acetate, pH 8.0, 14 mM magnesium acetate, 1 mM DTT, 1 M KCl). After renewed centrifugation, the cells are washed in 250 ml of cold buffer A with 50 mM KCl, and the resulting pellets are frozen at −20° C. for 60 min. The pellets are thawed on ice in 30 to 60 min and taken up to a total volume of 99 ml in buffer B (10 mM Tris acetate, pH 8.0, 20 mM magnesium acetate, 1 mM DTT, 50 mM KCl). 1.5 ml lysostaphin (0.8 mg/ml) in buffer B are introduced into 3 precooled centrifuge cups each and each mixed with 33 ml of the cell suspension. The samples are incubated at 37° C., shaking occasionally, for 45 to 60 min, before 150 μl of a 0.5 M DTT solution are added. The lysed cells are centrifuged at 30 000×g and 4° C. for 30 min. The cell pellet is taken up in buffer B and then centrifuged again under the same conditions, and the collected supernatants are combined. The supernatants are centrifuged again under the same conditions, and 0.25 volumes of buffer C (670 mM Tris acetate, pH 8.0, 20 mM magnesium acetate, 7 mM Na3 phosphoenolpyruvate, 7 mM DTT, 5.5 mM ATP, 70 μM amino acids (complete from Promega), 75 μg of pyruvate kinase (Sigma, Germany)/ml are added to the upper ⅔ of the supernatant. The samples are incubated at 37° C. for 30 min. The supernatants are dialysed against 21 of dialysis buffer (10 mM Tris acetate, pH 8.0, 14 mM magnesium acetate, 1 mM DTT, 60 mM potassium acetate) in a dialysis tube with a 3500 Da cut-off with one buffer change at 4° C. overnight. The dialysate is concentrated to a protein concentration of about 10 mg/ml by covering the dialysis tube with cold PEG 8000 powder (Sigma, Germany) at 4° C. The S30 extracts can be stored in aliquots at −70° C.
Inhibition of protein biosynthesis of the compounds can be shown in an in vitro transcription-translation assay. The assay is based on the cell-free transcription and translation of firefly luciferase using the reporter plasmid pla as template and cell-free S30 extracts obtained from S. aureus. The activity of the resulting luciferase can be detected by luminescence measurement.
The amount of S30 extract or plasmid plato be employed must be tested anew for each preparation in order to ensure an optimal concentration in the assay. 3 μl of the substance to be tested, dissolved in 5% DMSO, are introduced into an MTP. Then 10 μl of a suitably concentrated plasmid solution p1 a are added. Then 46 μl of a mixture of 23 μl of premix (500 mM Potassium acetate, 87.5 mM Tris acetate, pH 8.0, 67.5 mM ammonium acetate, 5 mM DTT, 50 μg of folic acid/ml, 87.5 mg of PEG 8000/ml, 5 mM ATP, 1.25 mM each NTP, 20 μM each amino acid, 50 mM PEP (Na3 salt), 2.5 mM cAMP, 250 μg each E. coli tRNA/ml) and 23 μl of a suitable amount of S. aureus S30 extract are added and mixed. […]

S. aureus 133 [5] = assay: MIC, alternative method, agar dilution test; assay type: cell-based; details: Staphylococcus aureus, 133; agar dilution, 1.5% agar with 20% defibrinated horse blood, 5% CO2, 18-24 h; read-out: MIC S. aureus 133
Method: (§3) The minimum inhibitory concentration (MIC) is the minimum concentration of an antibiotic with which the growth of a test microbe is inhibited over 18-24 h. The inhibitor concentration can be determined by standard microbiological methods using modified medium in an agar dilution test (see, for example, the National Committee for Clinical Laboratory Standards. Methods for dilution antimicrobial susceptibility tests for bacteria that grow aerobically; approved standard-fifth edition. NCCLS document M7-A5 [ISBN 1-56238-394-9]. NCCLS, 940 West Valley Road, Suite 1400, Wayne, PA. 19087-1898 USA, 2000). The bacterial microbes are cultivated on 1.5% agar plates containing 20% defibrinated horse blood. The test microbes, which are incubated on Columbia blood agar plates (Becton-Dickinson) overnight, are diluted in PBS, adjusted to a microbe count of about 5×10^5 microbes/ml and placed as drops (1-3 μl) on test plates. The test substances contain various dilutions of the test substances (1:2 dilution stages). The cultures are incubated at 37° C. in the presence of 5% CO2 for 18-24 hours.
(§4) The lowest concentration of each substance at which no visible bacterial growth occurs is defined as the MIC and is reported in μg/ml.

S. aureus T17 [6] = assay: MIC, alternative method, agar dilution test; assay type: cell-based; details: Staphylococcus aureus, T17; agar dilution, 1.5% agar with 20% defibrinated horse blood, 5% CO2, 18-24 h; read-out: MIC S. aureus T17
Method: as §3, §4

E. faecium L4001 [7] = assay: MIC, alternative method, agar dilution test; assay type: cell-based, Enterococcus faecium; details: Enterococcus faecium, L4001; agar dilution, 1.5% agar with 20% defibrinated horse blood, 5% CO2, 18-24 h; read-out: MIC E. faecium L4001
Method: as §3, §4

| Compound | MIC (S. aureus 133 [1]) [µM] | MIC (S. aureus T17 [2]) [µM] | MIC (E. faecium L4001 [3]; L4001, read-out: MIC E. faecium L4001) [µM] | IC50 ([4]; Table A) [nM] | IC50 ([4]; Table B) [nM] | MIC (S. aureus 133 [5]) [µg/mL] | MIC (S. aureus T17 [6]) [µg/mL] | MIC (E. faecium L4001 [7]) [µg/mL] | MIC (E. faecium L4001 [3]; L4001, liquid dilution, test medium with 10% FCS, 5% CO2, 18-24 h, read-out: MIC E. faecium L4001) [µM] |
| --- | --- | --- | --- | --- | --- | --- | --- | --- | --- |
| NCCNC(=O)[C@@H]1Cc2cccc(c2)-c2ccc(O)c(c2)C[C@H](N)C(=O)N[C@@H](C[C@@H](O)CN)C(=O)N1 [Example 36, (8S,11S,14S)-14-Amino-N-(2-aminoethyl)-11-[(2R) -3-amino-2-hydroxypropyl]-17-hydroxy-10,13-dioxo-9,12-diazatricyclo-[14.3.1.1^2,6]henicosa-1(20),2(21),3,5,16,18-hexaene-8-carboxamide tri(hydrotrifluoroacetate)] | 0.4 | 0.8 (≈ 0.399 µg/mL) | > 25 | 360 | 360 | 1 (≈ 2.01 µM) | 2 (≈ 4.01 µM) | 8 (≈ 16 µM) | – |
| CN1C(=O)[C@H](CCCN)NC(=O)[C@@H](N)Cc2cc(ccc2O)-c2ccc(Cl)c(c2)C[C@H]1C(=O)NCCN(CCN)CCN [Example 42, (8S,11S,14S)-14-Amino-11-(3-aminopropyl)-N-{2-[bis(2-aminoethyl)amino]ethyl}-5-chloro-17-hydroxy-9-methyl-10,13-dioxo-9,12-diazatricyclo[14.3.1.1^2,6]henicosa-1(20),2(21)3,5,16,18-hexaene-8-carboxamide penta(hydrotrifluoroacetate)] | – | – | – | – | 80 | 2 (≈ 3.24 µM) | 2 (≈ 3.24 µM) | 32 (≈ 51.8 µM) | – |
| CN1C(=O)[C@H](C[C@@H](O)CN)NC(=O)[C@@H](N)Cc2cc(ccc2O)-c2ccc(Cl)c(c2)C[C@H]1C(=O)NCC(O)CN (some centres unmarked) [Example 9] | 0.35 | 0.7 (≈ 0.404 µg/mL) | – | 300 | 300 | 2 (≈ 3.47 µM) | 4 (≈ 6.93 µM) | 16 (≈ 27.7 µM) | 11 (≈ 6.35 µg/mL) |
